Measured values reported in paper PMC3799874 (Bioorganic & medicinal chemistry letters, 2012).
Marks after values point to notes of the source that are not given here.

What was measured:
[1] = molecular target: T1, rat TRPV1 heterologously expressed in Chinese hamster ovary (CHO) cells (Rattus norvegicus, UniProt O35433); assay type: cell-based
[2] = molecular target: T1, rat TRPV1 heterologously expressed in Chinese hamster ovary (CHO) cells; assay type: binding

T1 sequence (O35433 whole entry): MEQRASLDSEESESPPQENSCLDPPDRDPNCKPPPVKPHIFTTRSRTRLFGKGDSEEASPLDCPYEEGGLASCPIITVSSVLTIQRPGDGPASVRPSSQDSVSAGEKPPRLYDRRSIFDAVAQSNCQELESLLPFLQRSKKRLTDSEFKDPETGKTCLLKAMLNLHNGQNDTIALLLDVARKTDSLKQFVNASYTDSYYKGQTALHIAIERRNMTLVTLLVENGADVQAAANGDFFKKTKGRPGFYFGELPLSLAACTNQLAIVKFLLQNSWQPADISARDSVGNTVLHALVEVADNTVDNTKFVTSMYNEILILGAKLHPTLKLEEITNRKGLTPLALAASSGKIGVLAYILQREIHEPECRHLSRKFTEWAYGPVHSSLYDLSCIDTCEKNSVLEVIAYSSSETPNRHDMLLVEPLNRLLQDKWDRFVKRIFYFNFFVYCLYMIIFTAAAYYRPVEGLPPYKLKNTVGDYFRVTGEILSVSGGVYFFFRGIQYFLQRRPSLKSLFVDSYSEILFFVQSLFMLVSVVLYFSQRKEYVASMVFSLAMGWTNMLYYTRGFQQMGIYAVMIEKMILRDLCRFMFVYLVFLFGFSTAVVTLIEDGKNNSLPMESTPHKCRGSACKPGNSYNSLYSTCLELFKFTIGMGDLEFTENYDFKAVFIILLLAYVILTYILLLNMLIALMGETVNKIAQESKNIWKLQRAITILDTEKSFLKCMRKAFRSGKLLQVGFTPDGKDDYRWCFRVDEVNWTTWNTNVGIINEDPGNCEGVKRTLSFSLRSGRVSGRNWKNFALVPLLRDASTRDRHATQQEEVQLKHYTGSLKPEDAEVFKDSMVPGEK

| Compound | enhancement in binding affinity compared to non-methylated parent [2] | fractional calcium uptake compared with that induced by 300 nM capsaicin [1] | also measured |
| --- | --- | --- | --- |
| COc1cc(C(C)C(=O)NCc2ccc(C(C)(C)C)cc2)ccc1O (stereo not shown) [8a] | 2 fold |  | enhancement in agonism compared to non-methylated parent [1]: 3 fold |
| CC(C(=O)NCc1ccc(C(C)(C)C)cc1)c1ccc(O)c(F)c1 (stereo not shown) [8b] | ca. 4.5 fold |  |  |
| CC(C(=O)NCc1ccc(C(C)(C)C)cc1)c1ccc(O)c(Cl)c1 (stereo not shown) [8c] | ~4 fold | (77%) ^a |  |
| CC(C)(C)c1ccc(CNC(=O)Cc2ccc(OCCN)c(F)c2)cc1 [10b] |  | (63%) ^a |  |
| CC(C)(C)c1ccc(CNC(=O)Cc2ccc(OCCN)c(Cl)c2)cc1 [10c] |  | (36%) ^a |  |
| CC(C(=O)NCc1ccc(C(C)(C)C)cc1)c1ccc(OCCN)c(F)c1 (stereo not shown) [14b] |  | (91%) ^a |  |
| CC(C(=O)NCc1ccc(C(C)(C)C)cc1)c1ccc(OCCN)c(Cl)c1 (stereo not shown) [14c] |  | (75%) ^a |  |
| CCCCCCCCCNC(=O)C(C)c1ccc(O)c(OC)c1 (stereo not shown) [compound 19] | 1.5–2 fold |  | enhancement in agonism compared to non-methylated parent [1]: 1.5–2 fold |
| COc1cc(C(C)C(=O)NCCCc2ccc(C)c(C)c2)ccc1O (stereo not shown) [compound 20] | 1.5–2 fold |  | enhancement in agonism compared to non-methylated parent [1]: 1.5–2 fold |
| COc1cc(C(C)C(=O)NCCCc2ccc(C)c(C)c2)ccc1OCCN (stereo not shown) [compound 22] |  |  | increase in receptor activity compared to DA-5018 [2]: ca. 2 fold |
| COc1cc(C(C)NC(=S)NCc2ccc(C(C)(C)C)cc2)ccc1O (stereo not shown) [compound 32] |  |  | reduction (loss) in binding affinity compared to non-methylated parent [2]: 3 fold |
| COc1cc(C(C)NC(=S)NCc2ccc(C(C)(C)C)cc2)ccc1OCCN (stereo not shown) [compound 36] |  |  | reduction (loss) in binding affinity compared to non-methylated parent [2]: 17 fold |
